# US20020197269A1, “Pharmaceutical composition for immunomodulation and preparation of vaccines” (CISTEM BIOTECHNOLOGIES GMBH, priority 2000, published 2002)
# In the oligonucleotide strings, read from the 5' end, every base follows the letter of its sugar. An asterisk marks phosphorothioate; unmarked linkages are phosphodiester. Other units and linkages are bracketed, terminal groups are in braces. A string of capitals states the bases alone. d = 2'-deoxy (DNA)
# Test system: MC1R-peptide (WGPFFLHL) specific IFN-γ-producing cells
# Assay: IFN-γ-ELISPOT after footpad injection with MC1R-peptide (Example 3)
# Assay type: in vivo, Mice C57B1/6
# Settings: co-injected with MC1R-peptide 300 μg/mouse into hind footpads; 4 days after injection; CpG-ODN 5 nmol/mouse
substance,measurement,value
CpG 1668: thiophosphate substituted ODNs containing a CpG motif: TCCATGACGTTCCTGATGCT (DNA dT*dC*dC*dA*dT*dG*dA*dC*dG*dT*dT*dC*dC*dT*dG*dA*dT*dG*dC*dT),peptide-specific IFN-γ-producing cells / peptide-specific response (IFN-γ-ELISPOT),low numbers
